Results published in patent publication US20250353891A1 (MEDIMMUNE LIMITED, priority 2022, published 2025).
Starred links: 1 amine or outer side, 2 acyl side, 3 side chain; linkers in the order of their positions; H or OH if unused. Non-standard residues stand in square brackets, D forms with d. Residues, ends and D or L forms follow the SMILES beside them. Groups on a side chain read outwards from the residue. *: point of attachment. γGlu = O=C(O)[C@H](CCC(=O)[*:2])N[*:1]; Stearoyl = CCCCCCCCCCCCCCCCCC(=O)*; Palmitoyl = CCCCCCCCCCCCCCCC(=O)*; αMeF = C[C@](N)(Cc1ccccc1)C(=O)O; Myristoyl = CCCCCCCCCCCCCC(=O)*; αMeS = C[C@](N)(CO)C(=O)O; PEG2 = NCCOCCOCCC(=O)O; Aib = CC(C)(N)C(=O)O

Key:
[1] = target: human GLP-1 receptor (hGLP-1R) (Homo sapiens, UniProt P43220); test: cAMP production (HTRF) in CHO cells expressing hGLP-1R; type: cell-based; parameters: expressed in transfected cells; details: for EC50: Table 6, peptides modified at position 17, cAMP in CHO hGLP-1R cells, geometric mean, read-out: hGLP-1R EC50; for % Relative Potency Ratio: Table 6, % GLP-1R activity relative to GLP-1 / % GlucR activity relative to glucagon
Outline: (§1)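 Potency values represent EC50 from 4-parameter logistic curves of HTRF % Delta F signal. Receptor-expressing CHO cells (hGCGR 2×10^5 cells/mL, hGLP-1R 1×10^5 cells/mL) were exposed for 30 min at room temperature before two-step cAMP detection.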

[2] = target: human glucagon receptor (hGCGR) (Homo sapiens, UniProt P47871); test: cAMP production (HTRF) in CHO cells expressing hGCGR; type: cell-based; parameters: expressed in transfected cells; details: Table 6, peptides modified at position 17; cAMP in CHO hGCGR cells; geometric mean; read-out: hGluc-R EC50
Outline: as §1

Sequence of human GLP-1 receptor (hGLP-1R) (P43220 24-463): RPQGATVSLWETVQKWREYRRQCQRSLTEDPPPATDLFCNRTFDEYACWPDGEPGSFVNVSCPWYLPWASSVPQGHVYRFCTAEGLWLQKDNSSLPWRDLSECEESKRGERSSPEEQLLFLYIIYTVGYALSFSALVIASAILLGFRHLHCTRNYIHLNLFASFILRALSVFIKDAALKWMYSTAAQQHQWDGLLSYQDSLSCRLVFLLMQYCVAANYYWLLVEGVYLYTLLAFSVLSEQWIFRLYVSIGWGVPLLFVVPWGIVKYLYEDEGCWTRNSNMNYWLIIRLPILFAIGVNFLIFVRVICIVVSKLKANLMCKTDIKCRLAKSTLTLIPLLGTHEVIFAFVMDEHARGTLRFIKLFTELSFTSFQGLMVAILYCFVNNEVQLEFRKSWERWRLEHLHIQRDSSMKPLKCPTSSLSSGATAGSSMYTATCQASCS
Sequence of human glucagon receptor (hGCGR) (P47871 26-477): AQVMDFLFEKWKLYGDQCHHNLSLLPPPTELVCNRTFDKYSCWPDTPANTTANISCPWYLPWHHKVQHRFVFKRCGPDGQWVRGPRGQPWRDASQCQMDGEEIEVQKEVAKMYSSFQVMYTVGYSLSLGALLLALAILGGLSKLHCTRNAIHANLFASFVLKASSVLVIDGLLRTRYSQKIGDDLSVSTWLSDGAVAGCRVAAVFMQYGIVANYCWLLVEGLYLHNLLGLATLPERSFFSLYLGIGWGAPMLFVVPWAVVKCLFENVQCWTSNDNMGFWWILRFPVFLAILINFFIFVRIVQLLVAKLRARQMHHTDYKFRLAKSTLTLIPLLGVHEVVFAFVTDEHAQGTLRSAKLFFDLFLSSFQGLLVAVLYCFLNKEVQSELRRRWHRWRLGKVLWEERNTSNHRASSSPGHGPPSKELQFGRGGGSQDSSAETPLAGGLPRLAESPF

SMILES | EC50 [1] | % Relative Potency Ratio [1] | EC50 [2]
CCCCCCCCCCCCCCCCCC(=O)N[C@@H](CCC(=O)N[C@@H](CCC(=O)NCCOCCOCCC(=O)NCCOCCOCCC(=O)NCCCC[C@H](NC(=O)[C@H](CO)NC(=O)[C@H](CC(=O)O)NC(=O)[C@H](CC(C)C)NC(=O)[C@@H](NC(=O)[C@H](CCCCN)NC(=O)[C@H](CO)NC(=O)[C@@H](NC(=O)[C@H](CC(=O)O)NC(=O)[C@H](CO)NC(=O)[C@@H](NC(=O)[C@](C)(Cc1ccccc1)NC(=O)[C@H](CO)NC(=O)CNC(=O)[C@H](CCC(N)=O)NC(=O)C(C)(C)NC(=O)[C@@H](N)Cc1c[nH]cn1)[C@@H](C)O)C(C)C)[C@@H](C)CC)C(=O)N[C@@H](C)C(=O)N[C@@H](C)C(=O)N[C@@H](CCC(N)=O)C(=O)N[C@@H](CC(=O)O)C(=O)N[C@@](C)(Cc1ccccc1)C(=O)N[C@H](C(=O)N[C@@H](CCC(N)=O)C(=O)NC(C)(C)C(=O)N[C@H](C(=O)N[C@H](C(=O)N[C@@H](CC(N)=O)C(=O)N[C@H](C(N)=O)[C@@H](C)O)[C@@H](C)CC)[C@@H](C)CC)C(C)C)C(=O)O)C(=O)O [Peptide 124] (H-H[Aib]QGS[αMeF]TSDVSKILDSK([PEG2-PEG2-γGlu-γGlu-Stearoyl])AAQD[αMeF]VQ[Aib]IINT-NH2; N-terminus assumed) | 1.27 pM | 15.2 | 9.79 pM
CCCCCCCCCCCCCCCC(=O)N[C@@H](CCC(=O)N[C@@H](CCC(=O)NCCOCCOCCC(=O)NCCOCCOCCC(=O)NCCCC[C@H](NC(=O)[C@H](CO)NC(=O)[C@H](CC(=O)O)NC(=O)[C@H](CC(C)C)NC(=O)[C@@H](NC(=O)[C@H](CCCCN)NC(=O)[C@H](CO)NC(=O)[C@@H](NC(=O)[C@H](CC(=O)O)NC(=O)[C@H](CO)NC(=O)[C@@H](NC(=O)[C@](C)(Cc1ccccc1)NC(=O)[C@H](CO)NC(=O)CNC(=O)[C@H](CCC(N)=O)NC(=O)C(C)(C)NC(=O)[C@@H](N)Cc1c[nH]cn1)[C@@H](C)O)C(C)C)[C@@H](C)CC)C(=O)N[C@@H](C)C(=O)N[C@@H](C)C(=O)N[C@@H](CCC(N)=O)C(=O)N[C@@H](CC(=O)O)C(=O)N[C@@](C)(Cc1ccccc1)C(=O)N[C@H](C(=O)N[C@@H](CCC(N)=O)C(=O)NC(C)(C)C(=O)N[C@H](C(=O)N[C@H](C(=O)N[C@@H](CC(N)=O)C(=O)N[C@H](C(N)=O)[C@@H](C)O)[C@@H](C)CC)[C@@H](C)CC)C(C)C)C(=O)O)C(=O)O [Peptide 125] (H-H[Aib]QGS[αMeF]TSDVSKILDSK([PEG2-PEG2-γGlu-γGlu-Palmitoyl])AAQD[αMeF]VQ[Aib]IINT-NH2; N-terminus assumed) | – | 23.0 | 6.68 pM
CCCCCCCCCCCCCCCCCC(=O)N[C@@H](CCC(=O)NCCOCCOCCC(=O)NCCOCCOCCC(=O)NCCCC[C@H](NC(=O)[C@H](CO)NC(=O)[C@H](CC(=O)O)NC(=O)[C@H](CC(C)C)NC(=O)[C@@H](NC(=O)[C@H](CCCCN)NC(=O)[C@H](CO)NC(=O)[C@@H](NC(=O)[C@H](CC(=O)O)NC(=O)[C@H](CO)NC(=O)[C@@H](NC(=O)[C@](C)(Cc1ccccc1)NC(=O)[C@H](CO)NC(=O)CNC(=O)[C@H](CCC(N)=O)NC(=O)C(C)(C)NC(=O)[C@@H](N)Cc1c[nH]cn1)[C@@H](C)O)C(C)C)[C@@H](C)CC)C(=O)N[C@@H](C)C(=O)N[C@@H](C)C(=O)N[C@@H](CCC(N)=O)C(=O)N[C@@H](CC(=O)O)C(=O)N[C@@](C)(Cc1ccccc1)C(=O)N[C@H](C(=O)N[C@@H](CCC(N)=O)C(=O)NC(C)(C)C(=O)N[C@H](C(=O)N[C@H](C(=O)N[C@@H](CC(N)=O)C(=O)N[C@H](C(N)=O)[C@@H](C)O)[C@@H](C)CC)[C@@H](C)CC)C(C)C)C(=O)O [Peptide 127] (H-H[Aib]QGS[αMeF]TSDVSKILDSK([PEG2-PEG2-γGlu-Stearoyl])AAQD[αMeF]VQ[Aib]IINT-NH2; N-terminus assumed) | – | 25.1 | 12.6 pM
CCCCCCCCCCCCCCCC(=O)N[C@@H](CCC(=O)NCCOCCOCCC(=O)NCCOCCOCCC(=O)NCCCC[C@H](NC(=O)[C@H](CO)NC(=O)[C@H](CC(=O)O)NC(=O)[C@H](CC(C)C)NC(=O)[C@@H](NC(=O)[C@H](CCCCN)NC(=O)[C@H](CO)NC(=O)[C@@H](NC(=O)[C@H](CC(=O)O)NC(=O)[C@H](CO)NC(=O)[C@@H](NC(=O)[C@](C)(Cc1ccccc1)NC(=O)[C@H](CO)NC(=O)CNC(=O)[C@H](CCC(N)=O)NC(=O)C(C)(C)NC(=O)[C@@H](N)Cc1c[nH]cn1)[C@@H](C)O)C(C)C)[C@@H](C)CC)C(=O)N[C@@H](C)C(=O)N[C@@H](C)C(=O)N[C@@H](CCC(N)=O)C(=O)N[C@@H](CC(=O)O)C(=O)N[C@@](C)(Cc1ccccc1)C(=O)N[C@H](C(=O)N[C@@H](CCC(N)=O)C(=O)NC(C)(C)C(=O)N[C@H](C(=O)N[C@H](C(=O)N[C@@H](CC(N)=O)C(=O)N[C@H](C(N)=O)[C@@H](C)O)[C@@H](C)CC)[C@@H](C)CC)C(C)C)C(=O)O [Peptide 128] (H-H[Aib]QGS[αMeF]TSDVSKILDSK([PEG2-PEG2-γGlu-Palmitoyl])AAQD[αMeF]VQ[Aib]IINT-NH2; N-terminus assumed) | – | 11.8 | 4.69 pM

Results, then the compound that gave them:

EC50 [1] | % Relative Potency Ratio [1] | EC50 [2] | SMILES
– | 17.6 | 4.1 pM | CCCCCCCCCCCCCC(=O)N[C@@H](CCC(=O)NCCOCCOCCC(=O)NCCOCCOCCC(=O)NCCCC[C@H](NC(=O)[C@H](CO)NC(=O)[C@H](CC(=O)O)NC(=O)[C@H](CC(C)C)NC(=O)[C@@H](NC(=O)[C@H](CCCCN)NC(=O)[C@H](CO)NC(=O)[C@@H](NC(=O)[C@H](CC(=O)O)NC(=O)[C@H](CO)NC(=O)[C@@H](NC(=O)[C@](C)(Cc1ccccc1)NC(=O)[C@H](CO)NC(=O)CNC(=O)[C@H](CCC(N)=O)NC(=O)C(C)(C)NC(=O)[C@@H](N)Cc1c[nH]cn1)[C@@H](C)O)C(C)C)[C@@H](C)CC)C(=O)N[C@@H](C)C(=O)N[C@@H](C)C(=O)N[C@@H](CCC(N)=O)C(=O)N[C@@H](CC(=O)O)C(=O)N[C@@](C)(Cc1ccccc1)C(=O)N[C@H](C(=O)N[C@@H](CCC(N)=O)C(=O)NC(C)(C)C(=O)N[C@H](C(=O)N[C@H](C(=O)N[C@@H](CC(N)=O)C(=O)N[C@H](C(N)=O)[C@@H](C)O)[C@@H](C)CC)[C@@H](C)CC)C(C)C)C(=O)O [Peptide 129] (H-H[Aib]QGS[αMeF]TSDVSKILDSK([PEG2-PEG2-γGlu-Myristoyl])AAQD[αMeF]VQ[Aib]IINT-NH2)
1.09 pM | 59.9 | 32.9 pM | CCCCCCCCCCCCCCCCCC(=O)N[C@@H](CCC(=O)N[C@@H](CCC(=O)NCCOCCOCCC(=O)NCCOCCOCCC(=O)NCCCC[C@H](NC(=O)[C@H](CO)NC(=O)[C@H](CC(=O)O)NC(=O)[C@H](CC(C)C)NC(=O)[C@@H](NC(=O)[C@H](CCCCN)NC(=O)[C@H](CO)NC(=O)[C@@H](NC(=O)[C@H](CC(=O)O)NC(=O)[C@H](CO)NC(=O)[C@@H](NC(=O)[C@](C)(Cc1ccccc1)NC(=O)[C@H](CO)NC(=O)CNC(=O)[C@H](CCC(N)=O)NC(=O)[C@](C)(CO)NC(=O)[C@@H](N)Cc1c[nH]cn1)[C@@H](C)O)C(C)C)[C@@H](C)CC)C(=O)N[C@@H](C)C(=O)N[C@@H](C)C(=O)N[C@@H](CCC(N)=O)C(=O)N[C@@H](CC(=O)O)C(=O)N[C@@](C)(Cc1ccccc1)C(=O)N[C@H](C(=O)N[C@@H](CCC(N)=O)C(=O)NC(C)(C)C(=O)N[C@H](C(=O)N[C@H](C(=O)N[C@@H](CC(N)=O)C(=O)N[C@H](C(N)=O)[C@@H](C)O)[C@@H](C)CC)[C@@H](C)CC)C(C)C)C(=O)O)C(=O)O [Peptide 130] (H-H[αMeS]QGS[αMeF]TSDVSKILDSK([PEG2-PEG2-γGlu-γGlu-Stearoyl])AAQD[αMeF]VQ[Aib]IINT-NH2; N-terminus assumed)
– | 68.9 | 17.8 pM | CCCCCCCCCCCCCCCC(=O)N[C@@H](CCC(=O)N[C@@H](CCC(=O)NCCOCCOCCC(=O)NCCOCCOCCC(=O)NCCCC[C@H](NC(=O)[C@H](CO)NC(=O)[C@H](CC(=O)O)NC(=O)[C@H](CC(C)C)NC(=O)[C@@H](NC(=O)[C@H](CCCCN)NC(=O)[C@H](CO)NC(=O)[C@@H](NC(=O)[C@H](CC(=O)O)NC(=O)[C@H](CO)NC(=O)[C@@H](NC(=O)[C@](C)(Cc1ccccc1)NC(=O)[C@H](CO)NC(=O)CNC(=O)[C@H](CCC(N)=O)NC(=O)[C@](C)(CO)NC(=O)[C@@H](N)Cc1c[nH]cn1)[C@@H](C)O)C(C)C)[C@@H](C)CC)C(=O)N[C@@H](C)C(=O)N[C@@H](C)C(=O)N[C@@H](CCC(N)=O)C(=O)N[C@@H](CC(=O)O)C(=O)N[C@@](C)(Cc1ccccc1)C(=O)N[C@H](C(=O)N[C@@H](CCC(N)=O)C(=O)NC(C)(C)C(=O)N[C@H](C(=O)N[C@H](C(=O)N[C@@H](CC(N)=O)C(=O)N[C@H](C(N)=O)[C@@H](C)O)[C@@H](C)CC)[C@@H](C)CC)C(C)C)C(=O)O)C(=O)O [Peptide 131] (H-H[αMeS]QGS[αMeF]TSDVSKILDSK([PEG2-PEG2-γGlu-γGlu-Palmitoyl])AAQD[αMeF]VQ[Aib]IINT-NH2; N-terminus assumed)
